Reference: patent publication US20050060100A1, “Computer software and algorithms for systems biologically linked to cellular phenotype” (Becton Dickinson and Company, priority 2003, published 2005)

System: MC3T3-E1 osteoblast cells
Assay: ECM screen: adhesion of MC3T3-E1 cells to immobilized adhesion ligands (fluorescent nuclei count)
Format: cell-based
Conditions: "best factors" approach
Excerpt: A statistical design was developed with special consideration of the surface chemistry requirements. In particular, in this experiment the scenario shown in FIG. 9 was used, wherein the overall adhesion ligand density was kept constant from well to well and only the adhesion ligand composition was allowed to change. In other words, the concentration of a single adhesion ligand could be different from well to well, but each well has the same amount of adhesion ligand immobilized overall. This scenario is further described above. An example of such design is shown in the spreadsheet in FIG. 10. The spreadsheet serves as a computer representation of the design which is stored in a database. The top row in […] lists the 10 factors […] used in this particular screen, and their corresponding identities. In the spreadsheet shown, Factor A represents fibronectin, Factor B represents Collagen I, etc. The first column is a list of the experimental points that translate into a well in the 96-well plate, e.g., 52 wells in this case. The numbers in the spreadsheet are the factor levels. In this example, these levels are the actual volumes (in μL) of factor that are added to a particular well. In this particular design, factors get added to the wells at three volumes, e.g., 5 μL, 25 μL, or 50 μL. The total well volume in this case is 50 μL. Thus, for wells where one factor is added at 50 μL, the final well composition will comprise a single adhesion ligand covalently immobilized on the well surface. Accordingly, if 25 μL of a factor is added to a well, a second factor is added at 25 μL also, and the final well composition will comprise a mixture of two different cell adhesion ligands covalently immobilized on the well surface. When 5 μL of a factor are added, nine other factors are added at 5 μL each, as well, thus resulting in wells that comprise a mixture of all 10 cell adhesion ligands on the well surface. These experimental points containing all 10 adhesion ligands are called “mid points” and are an integral part of the statistical design in this example.
With reference now to FIG. 11, a 96-well plate layout is shown, which was translated from the particular statistical design shown in FIG. 10. In particular, the 96-well plate includes the well compositions indicated in FIG. 10, e.g., cell adhesion ligand combinations immobilized at the bottom of each well. In particular, the experimental runs in FIG. 10 correspond to rows/columns in FIG. 11, as follows: runs 1-10 in the design in FIG. 10 represent row B, columns 2-11, respectively on the array in FIG. 11; runs 11-20 represent row C, columns 2-11; runs 21-30 represent row D, columns 2-11; runs 31-40 represent row E, columns 2-11; runs 41-50 represent row F, columns 2-11; and runs 51 and 52 represent row G, columns 2 and 3, respectively. As shown by the statistical design in FIG. 10 and the corresponding 96-well plate layout in FIG. 11 it is an embodiment of the present invention that, in addition to mixtures of agents, single agents can be placed in the receptacles.
Cells were removed from cell culture flasks using trypsin-EDTA according to methods well known in the art. Cells were enumerated, spun down and resuspended in media containing no serum or, alternatively, in media containing 10% fetal calf serum. Cells were plated into the wells of a 96-well microarray according to the layout shown in FIG. 11 and described in Example 3 above. The seeding density was about 10,000 cells per well. Cells were incubated on the plates overnight at 37° C. The following day, media and any cells not adhering to the immobilized agents on the well surfaces were removed. Any adhered cells were fixed by exposure to forrnalin for at least 15 minutes. Propidium iodite was used to fluorescently label the nuclei of said fixed adhered cells. […]

[1] = no serum, FIG. 14, deviation from mid-point reference blend

Row | Substance | effect on cell count (mixture-model analysis) (10% serum, FIG. 15) | effect on cell count (mixture-model analysis) [1]
1 | Collagen IV | positive effect on cell count | increase the cell count
2 | poly-L-lysine [reference compound] | diminishes | marginal effect
3 | laminin | positive effect on cell count | increase the cell count
